Counter-ions that a name gives are not always drawn.
Columns and labels:
[1] = Phase 1a single ascending dose study: UV-4 in pooled urine, urinary recovery and renal clearance; format: in vivo, human; conditions: urine; for Cumulative Amount Ae(0-last): corresponds to Ae(0-48); for Cumulative Percent fe(0-last): corresponds to fe(0-48)
Experimental: Serial blood samples were collected at pre-dose (0 hour) and 0.5, 1, 1.5, 2, 2.5, 3, 4, 6, 9, 12, 18, 24, 36, and 48 hours post-dose for assessment of UV-4 concentrations in plasma. Pooled urine samples were collected at pre-dose (-12 to 0 hour) and from 0 to 6, 6 to 12, 12 to 24, and 24 to 48 hours post-dose for assessment of UV-4 concentrations in urine. Plasma and urine concentrations of UV-4 were determined by means of validated, sensitive, and specific high-performance liquid chromatography/tandem mass spectrometric (LC-MS/MS) assays. UV-4 plasma and urine concentrations and PK parameters were listed and summarized by dose, as appropriate. Only the 48 subjects who received active investigational product were included in the PK analysis population.
8.2.3 Specimen Preparation, Handling, and Shipping
8.2.3.1 Instructions for Specimen Preparation, Handling, and Storage
The collected PK blood samples (2 mL) will be placed on ice after blood draw, and within 1 hour centrifuged at room temperature at approximately 3000 revolutions per minute for 15 minutes. Plasma will then be harvested and split into 4 aliquots of approximately 250 μ L and stored frozen at -20°C until shipped.
Urine samples (approximately 10 mL) for determination of UV-4 concentrations in urine will be taken from the total volume provided during each collection period. The total volume of each urine collection will be recorded along with the start/stop time for each urine collection interval.
Analysis of plasma and urine for UV-4 will be performed by the qualified bioanalytical laboratory, Quintiles Bioservices, Inc., Ithaca, New York 14950. Instructions for the proper preparation, handling, storage and shipping of specimens will be provided separately in a study-specific laboratory manual (i.e., Biopacket).
8.2.3.2 Specimen Shipment […]
The following single-dose urine PK parameters will be estimated from the UV-4 urine concentration-time data collected, as appropriate:
Ae Amount of UV-4 excreted in urine unchanged, calculated for each collection interval and cumulatively across intervals fe Fraction of UV-4 excreted in urine unchanged, calculated for each collection interval and cumulatively across intervals […]
Additional UV-4 PK parameters may be calculated at the discretion of the […]
Plasma concentrations and plasma and urine PK parameters will be summarized by treatment using descriptive statistics, as appropriate. Figures for the arithmetic mean (and SD) concentration-time data will be presented for all doses on both a linear and semi-logarithmic scale. Individual concentration-time data will be graphically presented on linear and semi-logarithmic scales. Scatter plots of individual and geometric mean PK parameters versus dose will be presented. Additional graphical presentations of PK data may be added at the discretion of the PK analyst.
Dose proportionality of Cmax, AUC(0-last), and AUC(0-inf) will be assessed graphically and statistically using the power model approach with the logarithm of PK parameters AUC(0-inf) and Cmax as the dependent variables and the logarithm of the dose as the independent variable: ([AUC(0-inf), AUC(0-last), or Cmax]=α *doseβ).
11.4.7 Deviation from Original Analysis Plan
Deviations from the formal statistical analysis plan will be noted in the final Clinical Study

[2] = animal studies; cited from earlier work
[3] = design: method as in Investigator’s Brochure (IB); conditions: dogs, ref Investigator’s Brochure (IB), cited from earlier work
[4] = Cohort 4, 90 mg single oral dose, Median
[5] = Cohort 5, 180 mg single oral dose, Ar Mean
[6] = Cohort 5, 180 mg single oral dose, Median
[7] = Cohort 6, 360 mg single oral dose, Ar Mean
[8] = Cohort 6, 360 mg single oral dose, Median
[9] = Cohort 7, 720 mg single oral dose, Ar Mean
[10] = Cohort 7, 720 mg single oral dose, Median
[11] = Cohort 8, 1000 mg single oral dose, Ar Mean
[12] = Cohort 8, 1000 mg single oral dose, Median

## COCCCCCCCCCN1C[C@H](O)[C@@H](O)[C@H](O)[C@H]1CO [UV-4B, N-(9’-methoxynonyl)-1-deoxynojirimycin hydrochloride]
[1]; [4]
  By-Interval Percent fe(0-6): 43.6%
  By-Interval Percent fe(6-12): 7.07%
  By-Interval Percent fe(12-24): 4.46%
  By-Interval Percent fe(24-48): 1.66%
  Cumulative Amount Ae(0-12): 44.2 mg
  Cumulative Amount Ae(0-24): 47.8 mg
  Cumulative Percent fe(0-12): 49.1%
  Cumulative Percent fe(0-24): 53.1%
  Cumulative Amount Ae(0-last): 49.7 mg
  Cumulative Percent fe(0-last): 55.3%
[1]; [5]
  By-Interval Amount Ae(0-6): 77.5 mg
  By-Interval Amount Ae(6-12): 12.1 mg
  By-Interval Amount Ae(12-24): 6.06 mg
  By-Interval Amount Ae(24-48): 2.43 mg
  By-Interval Percent fe(0-6): 43.0%
  By-Interval Percent fe(6-12): 6.74%
  By-Interval Percent fe(12-24): 3.37%
  By-Interval Percent fe(24-48): 1.35%
  Cumulative Amount Ae(0-12): 89.6 mg
  Cumulative Amount Ae(0-24): 95.7 mg
  Cumulative Percent fe(0-12): 49.8%
  Cumulative Percent fe(0-24): 53.1%
  Cumulative Amount Ae(0-last): 97.9 mg
  Cumulative Percent fe(0-last): 54.5%
[1]; [6]
  By-Interval Amount Ae(0-6): 77.7 mg
  By-Interval Amount Ae(6-12): 12.1 mg
  By-Interval Amount Ae(12-24): 5.76 mg
  By-Interval Amount Ae(24-48): 2.20 mg
  By-Interval Percent fe(0-6): 43.2%
  By-Interval Percent fe(6-12): 6.72%
  By-Interval Percent fe(12-24): 3.20%
  By-Interval Percent fe(24-48): 1.22%
  Cumulative Amount Ae(0-12): 89.5 mg
  Cumulative Amount Ae(0-24): 96.8 mg
  Cumulative Percent fe(0-12): 49.7%
  Cumulative Percent fe(0-24): 53.8%
  Cumulative Amount Ae(0-last): 99.8 mg
  Cumulative Percent fe(0-last): 55.6%
[1]; [7]
  By-Interval Amount Ae(0-6): 159 mg
  By-Interval Amount Ae(6-12): 19.1 mg
  By-Interval Amount Ae(12-24): 7.09 mg
  By-Interval Amount Ae(24-48): 2.83 mg
  By-Interval Percent fe(0-6): 44.2%
  By-Interval Percent fe(6-12): 5.32%
  By-Interval Percent fe(12-24): 1.97%
  By-Interval Percent fe(24-48): 0.787%
  Cumulative Amount Ae(0-12): 178 mg
  Cumulative Amount Ae(0-24): 185 mg
  Cumulative Percent fe(0-12): 49.5%
  Cumulative Percent fe(0-24): 51.5%
  Cumulative Amount Ae(0-last): 188 mg
  Cumulative Percent fe(0-last): 52.3%
[1]; [8]
  By-Interval Amount Ae(0-6): 153 mg
  By-Interval Amount Ae(6-12): 20.0 mg
  By-Interval Amount Ae(12-24): 6.73 mg
  By-Interval Amount Ae(24-48): 2.89 mg
  By-Interval Percent fe(0-6): 42.4%
  By-Interval Percent fe(6-12): 5.55%
  By-Interval Percent fe(12-24): 1.87%
  By-Interval Percent fe(24-48): 0.803%
  Cumulative Amount Ae(0-12): 172 mg
  Cumulative Amount Ae(0-24): 178 mg
  Cumulative Percent fe(0-12): 47.8%
  Cumulative Percent fe(0-24): 49.5%
  Cumulative Amount Ae(0-last): 182 mg
  Cumulative Percent fe(0-last): 50.4%
[1]; [9]
  By-Interval Amount Ae(0-6): 301 mg
  By-Interval Amount Ae(6-12): 42.5 mg
  By-Interval Amount Ae(12-24): 11.7 mg
  By-Interval Amount Ae(24-48): 4.09 mg
  By-Interval Percent fe(0-6): 41.8%
  By-Interval Percent fe(6-12): 5.90%
  By-Interval Percent fe(12-24): 1.63%
  By-Interval Percent fe(24-48): 0.569%
  Cumulative Amount Ae(0-12): 344 mg
  Cumulative Amount Ae(0-24): 355 mg
  Cumulative Percent fe(0-12): 47.7%
  Cumulative Percent fe(0-24): 49.4%
  Cumulative Amount Ae(0-last): 360 mg
  Cumulative Percent fe(0-last): 49.9%
[1]; [10]
  By-Interval Amount Ae(0-6): 285 mg
  By-Interval Amount Ae(6-12): 45.7 mg
  By-Interval Amount Ae(12-24): 12.1 mg
  By-Interval Amount Ae(24-48): 4.53 mg
  By-Interval Percent fe(0-6): 39.6%
  By-Interval Percent fe(6-12): 6.34%
  By-Interval Percent fe(12-24): 1.68%
  By-Interval Percent fe(24-48): 0.630%
  Cumulative Amount Ae(0-12): 332 mg
  Cumulative Amount Ae(0-24): 345 mg
  Cumulative Percent fe(0-12): 46.1%
  Cumulative Percent fe(0-24): 47.9%
  Cumulative Amount Ae(0-last): 350 mg
  Cumulative Percent fe(0-last): 48.5%
[1]; [11]
  By-Interval Amount Ae(0-6): 428 mg
  By-Interval Amount Ae(6-12): 53.7 mg
  By-Interval Amount Ae(12-24): 16.4 mg
  By-Interval Amount Ae(24-48): 5.21 mg
  By-Interval Percent fe(12-24): 1.64%
  Cumulative Amount Ae(0-12): 482 mg
  Cumulative Amount Ae(0-24): 498 mg
  Cumulative Amount Ae(0-last): 504 mg
[1]; [12]
  By-Interval Amount Ae(0-6): 421 mg
  By-Interval Amount Ae(6-12): 56.1 mg
  By-Interval Amount Ae(12-24): 16.6 mg
  By-Interval Amount Ae(24-48): 5.03 mg
  Cumulative Amount Ae(0-12): 475 mg
  Cumulative Amount Ae(0-24): 496 mg
  Cumulative Amount Ae(0-last): 501 mg
[2]
  Bioavailability of the hydrochloride salt: high bioavailability
[3]; 150 mg/kg/dose TID for seven days
  Finding at the highest dose: severe GI effects
[3]; 10 mg/kg
  Finding at 10 mg/kg/dose TID: diarrhea was still apparent

— publication PMC9387934, “Randomized single oral dose phase 1 study of safety, tolerability, and pharmacokinetics of Iminosugar UV-4 Hydrochloride (UV-4B) in healthy subjects” (PLoS Neglected Tropical Diseases, 2022)
